Test results taken from patent US8575091B1, “Amylin analogues and pharmaceutical compositions thereof” (Novo Nordisk A/S, priority 2012, dated 2013).
Numbered stars: 1 amine (or outer) side, 2 acyl side, 3 side chain; on linkers, the order of the positions; unused ones are H or OH. Bridge positions count the residues as written; N and C are the ends. Side chains are listed from the residue outwards. Peptide text beside a SMILES is read from it. * marks the point of attachment. C20 diacid = O=C(O)CCCCCCCCCCCCCCCCCCC(=O)*; γGlu = O=C(O)[C@H](CCC(=O)[*:2])N[*:1]; AEEA = NCCOCCOCC(=O)O

Legend:
[1] = biological target: T1, human amylin receptor (amylin 3(a) receptor: human calcitonin receptor + RAMP-3) (Homo sapiens, UniProt O60896+P30988); assay: Assay (II)a functional assay, human amylin receptor (CRE luciferase, BHK cells); format: cell-based; details: for EC50: functional assay, human amylin receptor, read-out: hAmylin-R funct. EC50
T1 construct: expressed in transfected cells
T1 sequence (P30988 25-474): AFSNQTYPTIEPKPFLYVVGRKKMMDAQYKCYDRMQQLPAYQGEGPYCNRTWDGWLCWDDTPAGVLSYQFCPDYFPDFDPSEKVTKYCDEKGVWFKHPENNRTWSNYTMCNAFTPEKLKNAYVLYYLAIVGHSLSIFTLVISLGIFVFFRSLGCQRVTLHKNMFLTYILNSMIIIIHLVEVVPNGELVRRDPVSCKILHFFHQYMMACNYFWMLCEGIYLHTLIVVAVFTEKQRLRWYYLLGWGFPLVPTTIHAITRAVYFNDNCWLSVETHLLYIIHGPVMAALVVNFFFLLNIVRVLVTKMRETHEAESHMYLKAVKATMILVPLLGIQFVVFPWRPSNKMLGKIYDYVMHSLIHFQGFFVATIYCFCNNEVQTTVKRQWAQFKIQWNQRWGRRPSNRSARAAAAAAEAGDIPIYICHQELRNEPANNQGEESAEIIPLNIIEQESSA
T1 sequence (O60896 24-148 partner): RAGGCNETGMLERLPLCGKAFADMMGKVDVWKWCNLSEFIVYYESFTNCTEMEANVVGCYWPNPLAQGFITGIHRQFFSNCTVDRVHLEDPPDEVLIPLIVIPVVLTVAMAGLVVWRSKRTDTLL
Method: Assay (II)—Functional Assays
Consequently, transcription is activated by promoters containing multiple copies of the cAMP response element (CRE).
The cell line was further transfected with RAMP-3, using standard methods.
After incubation overnight at 37° C. and 5% CO2, the growth medium was replaced by 50 μl/well assay medium (DMEM (without phenol red), Glutamax™, 10% FBS, and 10 mM Hepes, pH 7.4). Further, 50 μl/well of standard or sample in assay buffer were added. After 3 hours incubation at 37° C. and 5% CO2, the assay medium with standard or sample were removed and replaced by 100 μl/well PBS. Further, 100 μl/well LucLite™ was added. The plates were sealed and incubated at room temperature for 30 minutes. Finally, luminescence was measured on a TopCounter (Packard) in SPC (single photon counting) mode.

[2] = Assay (IV) determination of solubility; format: physicochemical; details: for Solubility pH 6.5 Concentration (μM): pH 6.5, 18 hours room temperature; for Solubility pH 7.0 Concentration (μM): pH 7.0, 18 hours room temperature; for Solubility pH 7.5 Concentration (μM): pH 7.5, 18 hours room temperature; for Solubility pH 8.0 Concentration (μM): pH 8.0, 18 hours room temperature
Method: Assay (IV)—Determination of Solubility
The polypeptide was dissolved in water at ˜500 nmol/ml and mixed 1:1 with a series of buffers (100 mM glycylglycine pH 3.0, 100 mM glycylglycine pH 4.0, 100 mM glycylglycine pH 5.0, 100 mM bistrispropane pH 6.0, 100 mM bistrispropane pH 6.5, 100 mM bistrispropane pH 7.0, 100 mM bistrispropane pH 7.5, 100 mM bistrispropane pH 8.0). After 18 hours at room temperature the samples were centrifuged and the polypeptide concentration determined by UPLC.

[3] = biological target: T2, human calcitonin receptor (Homo sapiens, UniProt P30988); assay: Assay (II)a functional assay, human calcitonin receptor (CRE luciferase, BHK cells);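 note: luminescence from a CRE-driven luciferase reporter, read by single photon counting after cells were exposed to test samples for 3 h at 37 °C under 5% CO2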; format: cell-based; details: read-out: hCTR funct. EC50
T2 construct: expressed in transfected cells
T2 sequence (P30988 25-474): T1 sequence (P30988 25-474)

human amylin receptor = biological target: T3, human amylin receptor (Homo sapiens, UniProt O60896+P30988); assay: Assay (V) binding to the human amylin receptor (SPA, 125I-rat amylin); details: human amylin receptor membranes, SPA; read-out: hAmylin-R bind IC50
T3 construct: expressed in transfected cells
T3 sequence (P30988 25-474): T1 sequence (P30988 25-474)
T3 sequence (O60896 24-148 partner): T1 sequence (O60896 24-148 partner)
Summary of the method: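 IC50, taken as receptor affinity, came from one-site binding competition analysis of scintillation proximity counts. Amylin 3(a)/CRE-luc cell membranes (35 ng/μL final) were mixed with SPA beads (0.05 mg/well) in 50 mM Hepes pH 7.4 containing CaCl2, MgCl2, 0.1% OA and 0.02% Tween20.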

[4] = biological target: T2, human calcitonin receptor; assay: Assay (VII) binding to the human calcitonin receptor (SPA, 125I-Calcitonin); details: read-out: hCTR bind IC50;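 note: cell membranes coupled to SPA beads, competitive displacement read by scintillation counting, IC50 derived from a one-site competition fit as a measure of receptor affinity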
Method: Membranes were prepared in the following way; the cells were rinsed with PBS and incubated with Versene for approximately 5 min before harvesting. The cells were flushed with PBS and the cell-suspension was centrifuged for 5 min at 1000 rpm. […] The resulting pellet was resuspended in buffer 2 and protein concentration was measured (BCA protein Assay, Pierce). The homogenate was kept cold during the whole procedure. The membranes were kept at −80° C. until use. Assay was performed in a 384 well Optiplate (PerkinElmer) in a total volume of 40 ul. Membranes were mixed with SPA beads. Final concentration of membranes 35 ng/μL final and Final concentration of SPA beads was 0.05 mg/well. Test-compounds were dissolved in DMSO and further diluted in assay buffer (50 mM Hepes, pH 7.4, 1 mM CaCl2, 5 mM MgCl2, 0.1% OA and 0.02% Tween20). […] Samples were analyzed on TopCounter™ (Packard). The IC50 was calculated using (one site binding competition analysis) GraphPad Prism5 as a measure of receptor affinity.

[5] = Table 6, human functional selectivity (hCTR EC50 / hAmylin-R EC50)
[6] = Table 6a, human functional selectivity (hCTR EC50 / hAmylin-R EC50), at least 5
[7] = Table 6j, hCTR funct. EC50 / hAmylin-R funct. EC50
[8] = Table 6k, hCTR funct. EC50 / hAmylin-R funct. EC50

## CC[C@H](C)[C@H](NC(=O)[C@H](C)NC(=O)CNC(=O)[C@H](Cc1ccccc1)NC(=O)[C@H](CC(N)=O)NC(=O)[C@@H]1CCCN1C(=O)[C@H](CO)NC(=O)[C@H](CO)NC(=O)[C@H](Cc1c[nH]cn1)NC(=O)[C@H](CCCNC(=N)N)NC(=O)[C@H](CC(C)C)NC(=O)[C@H](Cc1ccccc1)NC(=O)[C@H](CC(N)=O)NC(=O)[C@H](C)NC(=O)[C@H](CC(C)C)NC(=O)[C@H](CCCNC(=N)N)NC(=O)[C@H](CCC(N)=O)NC(=O)[C@@H](NC(=O)[C@H](C)NC(=O)[C@@H]1CSSC[C@H](NC(=O)[C@@H](N)CCCCNC(=O)CC[C@H](NC(=O)CC[C@H](NC(=O)CCCCCCCCCCCCCCCCCCC(=O)O)C(=O)O)C(=O)O)C(=O)N[C@@H](CC(N)=O)C(=O)N[C@@H]([C@@H](C)O)C(=O)N[C@@H](C)C(=O)N[C@@H]([C@@H](C)O)C(=O)N1)[C@@H](C)O)C(=O)N1CCC[C@H]1C(=O)N[C@@H](CO)C(=O)N[C@@H](CO)C(=O)N[C@H](C(=O)N1CCC[C@H]1C(=O)N[C@H](C(=O)NCC(=O)N1CCC[C@H]1C(=O)N[C@@H](CCCNC(=N)N)C(=O)N[C@H](C(=O)N[C@@H](Cc1ccc(O)cc1)C(N)=O)[C@@H](C)O)C(C)C)[C@@H](C)O [Example 119] (H-K([γGlu-γGlu-C20 diacid])CNTATCATQRLANFLRHSSPNFGAIPSSTPVGPRTY-NH2; disulfide 2-7 (inferred); N-terminus and C-terminus assumed)
[1]; [5]
  Ratio hCT/hAmylin funct.: 26.0
[1]; [6]
  Ratio hCT/hAmylin funct.: 26.0
[1]; [7]
  Ratio hCT/hAmylin funct.: 26.0
[1]; [8]
  Ratio hCT/hAmylin funct.: 26.0
[2]
  Solubility pH 6.5 Concentration (μM): 174 μM
  Solubility pH 7.0 Concentration (μM): 182 μM
  Solubility pH 7.5 Concentration (μM): 112 μM
  Solubility pH 8.0 Concentration (μM): 32 μM

## CC[C@H](C)[C@H](NC(=O)[C@H](C)NC(=O)CNC(=O)[C@H](Cc1ccccc1)NC(=O)[C@H](CC(N)=O)NC(=O)[C@@H]1CCCN1C(=O)[C@H](CO)NC(=O)[C@H](CO)NC(=O)[C@H](Cc1c[nH]cn1)NC(=O)[C@H](CCCNC(=N)N)NC(=O)[C@H](CC(C)C)NC(=O)[C@H](Cc1ccccc1)NC(=O)[C@H](CC(N)=O)NC(=O)[C@H](C)NC(=O)[C@H](CC(C)C)NC(=O)[C@H](CCCNC(=N)N)NC(=O)[C@H](CCC(N)=O)NC(=O)[C@@H](NC(=O)[C@H](C)NC(=O)[C@@H]1CSSC[C@H](NC(=O)[C@@H](N)CCCCNC(=O)COCCOCCNC(=O)COCCOCCNC(=O)CC[C@H](NC(=O)CCCCCCCCCCCCCCCCCCC(=O)O)C(=O)O)C(=O)N[C@@H](CC(N)=O)C(=O)N[C@@H]([C@@H](C)O)C(=O)N[C@@H](C)C(=O)N[C@@H]([C@@H](C)O)C(=O)N1)[C@@H](C)O)C(=O)N1CCC[C@H]1C(=O)N[C@@H](CO)C(=O)N[C@@H](CO)C(=O)N[C@H](C(=O)N[C@@H](CC(N)=O)C(=O)N[C@H](C(=O)NCC(=O)N[C@@H](Cc1c[nH]cn1)C(=O)N[C@@H](CC(N)=O)C(=O)N[C@H](C(=O)N[C@@H](Cc1ccc(O)cc1)C(N)=O)[C@@H](C)O)C(C)C)[C@@H](C)O [Example 97]
[1]; [5]
  Ratio hCT/hAmylin funct.: 33.0
[1]; [6]
  Ratio hCT/hAmylin funct.: 33.0
[1]; [7]
  Ratio hCT/hAmylin funct.: 33.0
[1]; [8]
  Ratio hCT/hAmylin funct.: 33.0
[1]
  EC50: 0.356 nM
[3]
  EC50: 11.7 nM
[2]
  Solubility pH 6.5 Concentration (μM): ≧200 μM
  Solubility pH 7.0 Concentration (μM): ≧200 μM
  Solubility pH 7.5 Concentration (μM): 88 μM
  Solubility pH 8.0 Concentration (μM): 43 μM
Human amylin receptor
  IC50: 0.568 nM
[4]
  IC50: 58.9 nM

## CC[C@H](C)[C@H](NC(=O)[C@H](C)NC(=O)CNC(=O)[C@H](Cc1ccccc1)NC(=O)[C@H](CC(N)=O)NC(=O)[C@@H]1CCCN1C(=O)[C@H](CO)NC(=O)[C@H](CO)NC(=O)[C@H](Cc1c[nH]cn1)NC(=O)[C@H](CCCNC(=N)N)NC(=O)[C@H](CC(C)C)NC(=O)[C@H](Cc1ccccc1)NC(=O)[C@H](CC(N)=O)NC(=O)[C@H](C)NC(=O)[C@H](CC(C)C)NC(=O)[C@H](CCCNC(=N)N)NC(=O)[C@H](CCC(N)=O)NC(=O)[C@@H](NC(=O)[C@H](C)NC(=O)[C@@H]1CSSC[C@H](NC(=O)[C@@H](N)CCCCNC(=O)CC[C@H](NC(=O)CCCCCCCCCCCCCCCCCCC(=O)O)C(=O)O)C(=O)N[C@@H](CC(N)=O)C(=O)N[C@@H]([C@@H](C)O)C(=O)N[C@@H](C)C(=O)N[C@@H]([C@@H](C)O)C(=O)N1)[C@@H](C)O)C(=O)N1CCC[C@H]1C(=O)N[C@@H](CO)C(=O)N[C@@H](CO)C(=O)N[C@H](C(=O)N[C@@H](CC(N)=O)C(=O)N[C@H](C(=O)NCC(=O)N[C@@H](Cc1c[nH]cn1)C(=O)N[C@@H](CC(N)=O)C(=O)N[C@H](C(=O)N[C@@H](Cc1ccc(O)cc1)C(N)=O)[C@@H](C)O)C(C)C)[C@@H](C)O [Example 77]
[1]
  EC50: 0.145 nM
[3]
  EC50: 5.4 nM
[2]
  Solubility pH 6.5 Concentration (μM): ≧200 μM
  Solubility pH 7.0 Concentration (μM): ≧200 μM
  Solubility pH 7.5 Concentration (μM): 147 μM
  Solubility pH 8.0 Concentration (μM): 59 μM
Human amylin receptor
  IC50: 0.428 nM
[4]
  IC50: 50.7 nM

## CC[C@H](C)[C@H](NC(=O)[C@H](C)NC(=O)CNC(=O)[C@H](Cc1ccccc1)NC(=O)[C@H](CC(N)=O)NC(=O)[C@@H]1CCCN1C(=O)[C@H](CO)NC(=O)[C@H](CO)NC(=O)[C@H](Cc1c[nH]cn1)NC(=O)[C@H](CCCNC(=N)N)NC(=O)[C@H](CC(C)C)NC(=O)[C@H](Cc1ccccc1)NC(=O)[C@H](Cc1c[nH]cn1)NC(=O)[C@H](C)NC(=O)[C@H](CC(C)C)NC(=O)[C@H](CCCNC(=N)N)NC(=O)[C@H](CCC(N)=O)NC(=O)[C@@H](NC(=O)[C@H](C)NC(=O)[C@@H]1CSSC[C@H](NC(=O)[C@@H](N)CCCCNC(=O)CC[C@H](NC(=O)CCCCCCCCCCCCCCCCCCC(=O)O)C(=O)O)C(=O)N[C@@H](CC(N)=O)C(=O)N[C@@H]([C@@H](C)O)C(=O)N[C@@H](C)C(=O)N[C@@H]([C@@H](C)O)C(=O)N1)[C@@H](C)O)C(=O)N1CCC[C@H]1C(=O)N[C@@H](CO)C(=O)N[C@@H](CO)C(=O)N[C@H](C(=O)N[C@@H](CC(N)=O)C(=O)N[C@H](C(=O)NCC(=O)N[C@@H](CO)C(=O)N[C@@H](Cc1c[nH]cn1)C(=O)N[C@H](C(=O)N[C@@H](Cc1ccc(O)cc1)C(N)=O)[C@@H](C)O)C(C)C)[C@@H](C)O [Example 66] (H-K([γGlu-C20 diacid])CNTATCATQRLAHFLRHSSPNFGAIPSSTNVGSHTY-NH2; disulfide 2-7; N-terminus assumed)
[2]
  Solubility pH 6.5 Concentration (μM): ≧200 μM
  Solubility pH 7.0 Concentration (μM): ≧200 μM
  Solubility pH 7.5 Concentration (μM): 131 μM
  Solubility pH 8.0 Concentration (μM): 52 μM

## CC[C@H](C)[C@H](NC(=O)[C@H](C)NC(=O)CNC(=O)[C@H](Cc1ccccc1)NC(=O)[C@H](CC(N)=O)NC(=O)[C@@H]1CCCN1C(=O)[C@H](CO)NC(=O)[C@H](CO)NC(=O)[C@H](Cc1c[nH]cn1)NC(=O)[C@H](CCCNC(=N)N)NC(=O)[C@H](CC(C)C)NC(=O)[C@H](Cc1ccccc1)NC(=O)[C@H](CC(N)=O)NC(=O)[C@H](C)NC(=O)[C@H](CC(C)C)NC(=O)[C@H](CCCNC(=N)N)NC(=O)[C@H](CCC(N)=O)NC(=O)[C@@H](NC(=O)[C@H](C)NC(=O)[C@@H]1CSSC[C@H](NC(=O)[C@@H](N)CCCCNC(=O)COCCOCCNC(=O)CC[C@H](NC(=O)CCCCCCCCCCCCCCCCCCC(=O)O)C(=O)O)C(=O)N[C@@H](CC(N)=O)C(=O)N[C@@H]([C@@H](C)O)C(=O)N[C@@H](C)C(=O)N[C@@H]([C@@H](C)O)C(=O)N1)[C@@H](C)O)C(=O)N1CCC[C@H]1C(=O)N[C@@H](CO)C(=O)N[C@@H](CO)C(=O)N[C@H](C(=O)N[C@@H](CC(N)=O)C(=O)N[C@H](C(=O)NCC(=O)N1CCC[C@H]1C(=O)N[C@@H](Cc1c[nH]cn1)C(=O)N[C@H](C(=O)N[C@@H](Cc1ccc(O)cc1)C(N)=O)[C@@H](C)O)C(C)C)[C@@H](C)O [Example 58] (H-K([AEEA-γGlu-C20 diacid])CNTATCATQRLANFLRHSSPNFGAIPSSTNVGPHTY-NH2; disulfide 2-7)
[1]
  EC50: 0.047 nM
[3]
  EC50: 1.03 nM
[2]
  Solubility pH 6.5 Concentration (μM): ≧200 μM
  Solubility pH 7.0 Concentration (μM): ≧200 μM
  Solubility pH 7.5 Concentration (μM): 96 μM
  Solubility pH 8.0 Concentration (μM): 48 μM
Human amylin receptor
  IC50: 0.088 nM
[4]
  IC50: 9.63 nM
